Measured values published in US4426378A, “Thyrotropin releasing hormone in therapy of shock and as a central nervous system stimulant” (The United States of America as represented by the …, priority 1981, dated 1984).

Tests used:
[1] = system: rats subjected to endotoxic shock; assay: Endotoxic shock follow-up: dose-response, cardiorespiratory variables and survival, Experiment No. 2; format: in vivo, rat; conditions: for pulse pressure / change in mean arterial pressure / respiratory rate / heart rate: 15 min following treatment; for survival, alive/dead: 2 hrs following treatment (saline 4/4)
Procedure: (§1) Follow-up studies were performed to evaluate other physiological parameters, TRH dose-response characteristics, and the effect of TRH on endotoxic shock survival in the rat. The experiments were conducted identically as described above in Experiment No. 1 for initial endotoxic shock studies, except heart rate, pulse pressure, respiration rate, and behavioral measures were examined following treatment with intravenous saline or TRH (0.2, 0.63, 2.0, 6.34, or 20.0 mg per kilogram body weight). Survival at 2 hours post drug treatment was also assessed. […] Pressure fell from 98.0±1.3(SE) millimeters of mercury (mm Hg) to 70.7±1.6 (SE) mm Hg, student's t=13.3, p 0.001.
When saline-control rat mortality was compared to mortality in all TRH-treated animals over the 2 hour measurement interval, there was a significant decrease in the lethal effects of endotoxemia produced by a single injection of this substance (Fisher exact probability, p=0.01).

[2] = system: rats; assay: Escape from enclosure with heated floor (53° C.); format: in vivo
Procedure: (§2) To confirm the lack of effect of TRH upon analgesic responses, an additional group of rats was equipped with intravenous cannulae only. One day later, rats were divided into 3 groups (n=6/group). Group one received TRH alone (2.0 mg/kg--a dose with therapeutic effects in shock), group two received morphine sulfate (4 mg per kg) followed by TRH (2.0 mg per kg), and group three got morphine sulfate alone (4.0 mg per kg). Pain latencies were determined by applying a thermal stimulus to the tail, tail-flick procedure, FIG. 4a, and by measuring how long required for a rat to escape from an enclosure with a heated floor (53° C.), FIG. 4b.

[3] = system: rats; assay: Behavioral effects of intravenous TRH (CNS stimulant); format: in vivo
Procedure: as §1
In addition to its effects upon physiological parameters, intravenous TRH also produced a variety of behavioral effects indicative of its action as a CNS stimulant.

[4] = system: rats subjected to endotoxic shock; assay: Endotoxic shock (E. coli lipopolysaccharide endotoxin i.v.), Experiment No. 1; format: in vivo, male Sprague-Dawley rats; conditions: TRH 2 mg/kg i.v.
Excerpt: (§3) Tail-artery and external-jugular vein cannulae were implanted in male Sprague-Dawley rats (250-300 g; Zivic-Miller Labs) according to standard surgical techniques. Twenty-four hours later, the arterial cannula were connected to a microtransducer (Narco Biosystems, RP 1500 attached to a Beckman physiograph, type R). This arrangement permitted continuous measurement of blood pressure and heart rate in awake, freely moving rats in their home cages.
A second group of rats was subjected to endotoxic vasogenic, septic) shock by the i.v. administration of Escherichia coli lipopolysaccharide endotoxin (15 mg/kg; Difco, control #654109). In these animals, MAP fell to 67-70 mm Hg, which was approximately 26% (24 mm Hg) below baseline levels of 92.7±1.9 mm Hg (n=22). These rats, randomly divided into two groups, were treated with either i.v. TRH (2 mg/kg, n=13) or an equal volume of i.v. saline (1.0 ml/kg, n=11), followed by a 0.2 ml cannula flush.

[5] = system: rats; assay: Tail-flick procedure (thermal stimulus to the tail); format: in vivo; conditions: n=6
Procedure: as §2

[6] = system: control rats not subjected to shock; assay: Cardiovascular effects of i.v. TRH in control rats not subjected to shock; format: in vivo, male Sprague-Dawley rats; conditions: TRH 2 mg/kg i.v.
Excerpt: as §3
In control rats which were not subjected to shock, the cardiovascular effects of intravenous (i.v.) TRH alone were determined. A dose of 2 mg/kg body weight TRH (Beckman Labs) was injected, followed by a cannula flush (0.2 ml saline) to ensure complete drug delivery. Cardiovascular parameters were monitored for two hours. TRH administration caused a significant increase in mean arterial pressure (MAP) of 11.1±1.5 mm Hg (n-10, Student's t=7.25, p 0.001), with peak effects observed at 5-minute post-injection and persisting for 30 minutes (FIG. 1).

[7] = system: rats subjected to hemorrhagic shock; assay: Hemorrhagic shock, Experiment No. 3; format: in vivo; conditions: TRH 2 mg/kg i.v.
Procedure: Another group of rats was subjected to hemorrhagic shock according to our previous experimental design. In a total of 27 rats, blood was withdrawn from the indwelling external jugular vein cannula; MAP fell from 96.5±1.6 mm Hg to 37.2±1.0 mm Hg where it was maintained for 20 minutes. A total of […] (body weight) of blood was removed, a volume approximating 45% of estimated total blood volume. Following the 20 minutes of controlled oligemia, animals were treated with either i.v. TRH (2 mg/kg, m=15) or an equal volume of i.v. saline (1.0 ml/kg, n=12) followed by a 0.2 ml cannula flush. Shed blood was not returned. […] The duration of this effect was about 30 minutes, approximately equivalent to the duration of the pressor response to TRH in normotensive rats not subjected to shock, FIG. 3a. In this model, saline-treated rats also experienced an increase in MAP, a consequence of the fluid volume infused.

NC(=O)[C@@H]1CCCN1C(=O)[C@H](Cc1c[nH]cn1)NC(=O)[C@@H]1CCC(=O)N1 [TRH, L-pyroglutamyl-L-histidyl-L-proline amide]
TRH dose vs improvement in MAP ([1]; 15 minutes following treatment, n=34, r=0.43, p<0.02): significant dose-response correlation
pulse pressure ([1]; TRH 0.20 mg/Kg IV, n=8, spread ±2.9): 24.4 mm Hg
change in mean arterial pressure ([1]; TRH 0.20 mg/Kg IV, n=8, spread ±5.1): 21.4 mm Hg
respiratory rate ([1]; TRH 0.20 mg/Kg IV, n=8, spread ±6.8): 107.0 breaths/min.
heart rate ([1]; TRH 0.20 mg/Kg IV, n=8, spread ±16.8): 465.0 beats/min
survival, alive/dead ([1]; TRH 0.20 mg/Kg): 7/1
respiratory rate ([1]; TRH 0.63 mg/Kg IV, n=8, spread ±4.0): 109.0 breaths/min.
change in mean arterial pressure ([1]; TRH 0.63 mg/Kg IV, n=8, spread ±5.2): 20.9 mm Hg
pulse pressure ([1]; TRH 0.63 mg/Kg IV, n=8, spread ±5.7): 36.2 mm Hg
heart rate ([1]; TRH 0.63 mg/Kg IV, n=8, spread ±22.4): 470.0 beats/min
survival, alive/dead ([1]; TRH 0.63 mg/Kg): 8/0
pulse pressure ([1]; TRH 2.00 mg/Kg IV, n=8, spread ±3.9): 33.1 mm Hg
change in mean arterial pressure ([1]; TRH 2.00 mg/Kg IV, n=8, spread ±5.1): 24.2 mm Hg
respiratory rate ([1]; TRH 2.00 mg/Kg IV, n=8, spread ±6.9): 125.0 breaths/min.
heart rate ([1]; TRH 2.00 mg/Kg IV, n=8, spread ±24.0): 517.5 beats/min
survival, alive/dead ([1]; TRH 2.00 mg/Kg): 7/1
change in mean arterial pressure ([1]; TRH 6.34 mg/Kg IV, n=8, spread ±3.7): 35.1 mm Hg
pulse pressure ([1]; TRH 6.34 mg/Kg IV, n=8, spread ±4.1): 37.5 mm Hg
respiratory rate ([1]; TRH 6.34 mg/Kg IV, n=8, spread ±4.3): 147.0 breaths/min.
heart rate ([1]; TRH 6.34 mg/Kg IV, n=8, spread ±21.0): 530.0 beats/min
survival, alive/dead ([1]; TRH 6.34 mg/Kg): 8/0
effect on pulse pressure and heart rate ([1]; TRH i.v., endotoxic shock): increased pulse pressure and heart rate
effect on respiration rate ([1]; TRH i.v., endotoxic shock): increased in a dose-related manner
survival following endotoxic shock ([1]; all TRH-treated vs saline-control, 2 hour interval, single injection, Fisher exact probability p=0.01): significantly improved
pain latency, escape from heated floor ([2]; TRH alone 2.0 mg/kg i.v., n=6, 53° C.): no effect
effect on morphine-induced analgesia, escape from heated floor ([2]; morphine sulfate 4 mg per kg followed by TRH 2.0 mg per kg, n=6): did not alter the intensity or duration of morphine-induced analgesia
lowest dose at which wet-dog shaking behavior was observed ([3]; intravenous TRH): 0.63 mg per kg
tail-rattling, oral "chewing" stereotypies, and piloerection ([3]; intravenous TRH 6.34 or 20.0 mg per kg body weight): frequently observed
increase in MAP ([4]; n=13, average during first 30 minutes post-treatment, endotoxin 15 mg/kg): 20-25 mm Hg
MAP area scores vs saline ([4]; triangulation of response-time data, Student's t=5.66, p<0.001): significant differences between the two treatment groups
pain latency, tail-flick ([5]; TRH alone 2.0 mg/kg i.v.): no effect
effect on morphine-induced analgesia, tail-flick ([5]; morphine sulfate 4 mg per kg followed by TRH 2.0 mg per kg): did not alter the intensity or duration of morphine-induced analgesia
persistence of MAP increase ([6]; control rats): 30 min
time of peak effect on MAP post-injection ([6]; control rats): 5 min
increase in mean arterial pressure (MAP) ([6]; normotensive control rats, n=10): 11.1±1.5 mm Hg
duration of MAP effect [7]: about 30 minutes
MAP higher than saline-control rats ([7]; n=15, first 15 minutes following injection): 20-25 mm Hg
MAP area scores vs saline ([7]; Student's t=2.11, p<0.05): significantly greater
